From patent US7964598B2 (The J. David Gladstone Institutes, priority 1995, dated 2011)
Values joined by “and” are separate entries in the source; they are usually repeats but may differ in a detail not shown here. Equal entries are not always repeated.

Assays:
[1] = target: T1, apoE4 (Homo sapiens, UniProt P02649, C130R); experiment: Emulsion binding assay for domain interaction, apoE4; conditions: for E4 + cpd n = 3, % bound / E4 + cpd n = 3, % free / E4 control, % bound / E4 control, % free: follow-up assay; for E4 control, % bound / E4 control, % free: second E4 control; for E4 + cpd, % bound / E4 + cpd, % free: initial assay, 2.5 μl of compound (10 mM stock) in 250 μl, 37° C. 2 hours
T1 construct: made in house
T1 sequence (P02649 19-317 C130R): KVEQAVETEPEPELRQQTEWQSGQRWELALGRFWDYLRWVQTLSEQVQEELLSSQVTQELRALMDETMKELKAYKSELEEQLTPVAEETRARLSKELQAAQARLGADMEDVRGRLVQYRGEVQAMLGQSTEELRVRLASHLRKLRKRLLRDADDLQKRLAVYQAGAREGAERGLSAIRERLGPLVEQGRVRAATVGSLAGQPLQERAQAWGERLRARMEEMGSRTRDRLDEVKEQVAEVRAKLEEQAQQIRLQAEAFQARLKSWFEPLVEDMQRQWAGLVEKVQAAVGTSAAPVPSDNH
Description: (§1) Preparation of emulsion particles. Triolein (160 mg) and L-alpha-Phosphatidylcholine (40 mg) are combined and dried under nitrogen. After the addition of 8 mls of buffer (10 mM Tris, 100 mM KCl, 1 mM EDTA, pH 8.0), the mixture is sonicated in a water bath to obtain a heterogeneous mix of emulsion particles. The particles are harvested by ultracentrifugation (TLA 100.2 rotor, 30,000 rpm for 30 minutes) and the subsequent lipid cake is removed by tube slicing and resuspended in 100 μt 20 mM Phosphate Buffer (PB). Triolein and phospholipid content are measured and total emulsion particle concentration is determined.
(§2) Radiolabelling Freshly denatured and renatured Apolipoprotein E3 and E4 are radiolabelled using Bolton-Hunter Reagent [^125I] (ICN). Specific Activity is determined using Lowry method and Gamma 8000 counter.
(§3) Binding Affinity Assay. […] In glass tubes, 25 μg of protein (with iodinated tracer) was reduced with 1% β-mercaptoethanol. Two hundred and fifty μg of emulsion particles and 2.5 μl of compound (10 mM stock) were added and the final mixture was brought up to 250 μl with 20 mM phosphate buffer (PB). The reaction mixture was then incubated in a 37° C. water bath for 2 hours before being transferred to 1.5 ml ultracentrifuge tubes. Finally, 50 μl of 60% sucrose was mixed with the sample and 400 μl 20 mM PB was carefully layered on top. Using a TLA 100.2 rotor, the tube was spun at 30,000 rpm for 30 minutes and subsequently cut to separate the floating emulsion particle layer from the free protein at the bottom of the tube. These fractions were then combined with the respective half of the actual tube and counted using a Gamma-8000. […] Protein-only assays yielded 94.5-96.6% of protein accumulated in the bottom portion of the tube. In emulsion particle-only assays, 94% of emulsion particles accumulated in the top portion of the tube.
(§4) Preparation of Emulsion Particles and VLDL Binding Affinity Assay. VLDL-like emulsion particles were prepared using triolein (160 mg) and L-alpha-phosphatidylcholine (40 mg), as described. Dong and Weisgraber (1996) supra; and Dong et al. (1994) J. Biol. Chem. 269:22358-22365.

[2] = target: T2, apoE3 (Homo sapiens, UniProt P02649); experiment: Emulsion binding assay, apoE3; conditions: follow-up assay
T2 construct: made in house
T2 sequence (P02649 19-317): as the sequence (P02649 19-317 C130R) above, with R112C counted along it
Description: as §1, §2, §3, §4

[3] = tested on: apoE3; experiment: Aβ production assay, B103-APP cells incubated with apoE3; type: cell-based, rat; conditions: FIG. 22
Description: (§5) Aβ production assay. Stable neuroblastoma B103 cell lines transfected with a wildtype hAPP cDNA construct (B 103-APP) were selected by growing them in Dulbecco's modified Eagle's medium (DMEM) containing 10% fetal calf serum (FBS) and 400 μg/ml G418. A cell line expressing APP at similar levels in mouse brains has been identified by RNase protection assay (RPA) and was used in the studies described below. To determine Aβ production, B103-APP cells were incubated with serum-free minimal essential medium (MEM) containing N2 supplements with or without apoE isoforms for 24 h at 37° C. After incubation, 50 μl of medium was collected and assayed for Aβ levels with an ELISA method. The cells were lysed, and cellular proteins were determined by the Lowry method. AP production was normalized to cellular protein.
(§6) Cell Culture. Rat neuroblastoma B103 cells stably expressing human wildtype APP (hAPP695wt) (Xu et al. ((1999) Proc. Natl. Acad. Sci. USA 96:7547-7552; Esposito, et al. (2004) J. Neurochem. 91:1260-1274) were generated in Dr. Lennart Mucke's laboratory at the Gladstone Institute of Neurological Disease and maintained in Dulbecco's modified Eagle's medium (DMEM) (GIBCO, Grand Island, N.Y.) containing 400 μg/ml G418, 10% fetal bovine serum, and 5% horse serum at 37° C. Twenty-four hours after plating into 48-well plates (1×10^5 cells per well), cells were washed twice with serum-free DMEM and cultured for another 24 h in DMEM containing 1% N-2 supplement (GIBCO) to induce differentiation. The cells were treated with either β-VLDL (25 μg/ml cholesterol), recombinant human apoE isoform-enriched β-VLDL (7.5 μg/ml apoE and 25 μg/ml cholesterol), or recombinant human apoE (7.5 μg/ml apoE) in fresh DMEM containing 1% N-2 supplement for an additional 24 h. In some experiments, RAP (25 nM or 1 μM) was added to the cells 1 h before apoE treatment.
(§7) Aβ Assay. Aβ secreted into the medium was detected with a sandwich enzyme-linked immunosorbent assay (ELISA), using mAb 266 as a capturing antibody and 3D6 as a detecting antibody, as described. Johnson-Wood et al. ((1997) Proc. Natl. Acad. Sci. USA 94:1550-1555). Aβ was quantified from a standard curve (Aβ42; Bachem, Torrance, Calif.) and normalized by total cellular protein.

[4] = tested on: apoE4 enhancement of Aβ production; experiment: Aβ production assay, B103-APP cells incubated with apoE4; type: cell-based, rat; conditions: FIG. 22
Description: as §5, §6, §7

[5] = tested on: B103-APP cells; experiment: APP processing and Aβ production, B103-APP cells; type: cell-based, rat
Description: as §5, §6
In some experiments, cells were treated with lovastatin, as described but with a minor modification. Fassbender et al. (2001) Proc. Natl. Acad. Sci. USA 98:5856-5861. Briefly, cells were maintained in differentiation medium containing 4 μM lovastatin and 0.25 mM mevalonate for 24 h. After treatment for 5 min with 5 mM methyl-β-cyclodextrin, which depletes cell membrane cholesterol (Bodovitz and Klein (1996) J. Biol. Chem. 271:4436-4440; Kojro et al. (2001) Proc. Natl. Acad. Sci. USA 98:5815-5820), the cells were incubated in fresh differentiation medium containing lovastatin and mevalonate for 24 h. The conditioned medium was collected, and cellular cholesterol extracted with chloroform/methanol (Huang et al. (1994) Proc. Natl. Acad. Sci. USA 91:1834-1838) and quantitated with a kit from Abbott Laboratories (Abbott Park, Ill.).
Detection of sAPPα. Media conditioned for 24 hours were normalized by protein content and subjected to SDS/PAGE. Proteins were then transferred onto nitrocellulose membranes. The sAPPα was detected by mAb 6E10 and visualized with an enhanced chemiluminescence system (Pierce, Rockford, Ill.).
as §7

[6] = tested on: Neuro-2a cells; experiment: Aβ-induced apoptosis (DNA fragmentation assay); type: cell-based, mouse
Description: DNA Fragmentation Assay—DNA fragmentation of apoptotic cells was determined with Cell Death Detection ELISA kits (Roche, Indianapolis, Ind.).
FIG. 38. […] Control cells were not treated with Aβ1-42. Apoptotic cell death was measured with a DNA fragmentation assay. Values are the mean±S.D. of three separate experiments.
FIGS. 39A and 39B. […] Lysosomal leakage was quantitated by assaying cytosolic 0-hexosaminidase activity. […] Conditioned media were prepared as described above. Apoptosis was quantitated by measuring DNA fragmentation.

[7] = tested on: Neuro-2a cells; experiment: Aβ-induced lysosomal leakage (cytosolic β-hexosaminidase); type: cell-based, mouse; conditions: 20 μM Aβ1-42
Description: The cytosolic fraction was obtained by ultracentrifugation, and the cytosolic β-hexosaminidase activity was measured.
Quantitation of the lysosomal enzyme β-hexosaminidase activity in the cytosol indicates lysosomal leakage. […] After incubation the cells were washed and cytosolic fractions were isolated as described in Materials and Methods. The enzymatic activity of β-hexosaminidase was assayed in 20 μg of cytosolic protein for each sample.
Lysosomal leakage was quantitated by assaying cytosolic 0-hexosaminidase activity. […] Conditioned media were prepared as described above. Apoptosis was quantitated by measuring DNA fragmentation.

[8] = β-VLDL 25 μg/ml cholesterol or lovastatin 4 μM

E4 + cpd n = 3, % bound [1]	E4 + cpd n = 3, % free [1]	E4 control, % bound [1]	E4 control, % free [1]	E4 + cpd, % bound [1]	E4 + cpd, % free [1]	E3 + compound, % bound [2]	E3 + compound, % free [2]	Molecule	other results
57%	43%	49%	51%	22% and 19%	78% and 81%	14%	86%	5-chloro-2-(4-chloro-2-(3,4-dichloro phenylureido) [GIND32]	effect on apoE3 (Aβ production) [3]: no effect; apoE4 enhancement of Aβ production [4]: abolished completely
57%	43%	26%	74%	11% and 10%	89% and 90%	20%	80%	O.O=C([O-])c1ccccc1-c1c2cc(I)c(=O)c(I)c-2oc2c(I)c([O-])c(I)cc12.[Na+].[Na+] [Erythrosin B]	
57%	43%	43%	57%	25% and 23%	75% and 77%	26%	74%	O=C(N[C@H](Cc1ccc(OCc2ccccc2)cc1)C(=O)O)OCc1ccccc1 [Z-D-Tyr (BZL)-OH]	
								CC[C@H](C)C(=O)O[C@H]1C[C@@H](C)C=C2C=C[C@H](C)[C@H](CC[C@@H]3C[C@@H](O)CC(=O)O3)[C@H]21 [lovastatin, reference compound]	cellular cholesterol content [5, 8]: lowered; production of Aβ [5, 8]: decreased; secretion of sAPPα [5, 8]: increased
								Aβ1-42: Amyloid β1-42, aggregated before use	DNA fragmentation ([6]; apoE3-transfected cells, 20 μM Aβ1-42, 18 h): 110 % of that in Z-VAD-treated con; DNA fragmentation ([6]; apoE4-transfected cells, 20 μM Aβ1-42, 18 h): ~250 % of that in Z-VAD-treated con; Aβ-induced DNA fragmentation ([6]; neo-transfected cells in apoE3-conditioned medium, 20 μM Aβ1-42, 18 h): 202%; Aβ-induced DNA fragmentation ([6]; neo-transfected cells in apoE4-conditioned medium, 20 μM Aβ1-42, 18 h): 314%; Aβ-induced DNA fragmentation ([6]; neo-transfected cells in neo-conditioned medium, 20 μM Aβ1-42, 18 h): 232%; DNA fragmentation ([6]; neo-transfected cells, 20 μM Aβ1-42, 18 h): ~140 % of that in Z-VAD-treated con; increase of cytosolic β-hexosaminidase activity ([7]; apoE4-transfected cells): ~85%; increase of cytosolic β-hexosaminidase activity ([7]; neo-transfected cells): ~40%
								Z-VAD	DNA fragmentation, Z-VAD treatment alone ([6]; compared with untreated control cells): no effect; Aβ-induced DNA fragmentation ([6]; pretreatment with Z-VAD 100 μg/ml 2 h, all three cell lines): greatly reduced
								apoE4-Thr-61: Thr-61 mutant of apoE4, lacks intramolecular domain interaction	enhanced Aβ production ([5]; 7.5 μg/ml, 37° C., 24 h, compared with apoE3 or apoE4): abolished the enhanced Aβ production

Molecule	E4 + cpd n = 3, % bound [1]	E4 + cpd n = 3, % free [1]	E4 control, % bound [1]	E4 control, % free [1]	E4 + cpd, % bound [1]	E4 + cpd, % free [1]	E3 + compound, % bound [2]	E3 + compound, % free [2]	other results
glycine cresol red [GIND29]	57%	43%	48%	52%	23% and 29%	77% and 71%	33%	67%	effect on apoE3 (Aβ production) [3]: no effect; apoE4 enhancement of Aβ production [4]: abolished completely
